Test: Preclinical incorporation dosimetry: whole-body PET/CT in piglets, scaled to human, OLINDA 2.1, ICRP103
Type: in vivo, juvenile pigs
Method: Three piglets (age: ~6 weeks, weight: ~13–15 kg) were fasted on the day of imaging and received an intranuscular. injection of 1 mL azaperone and 4 mL ketamine to introduce anesthesia. […] During narcosis, the animals maintained spontaneous respiration and no mandatory ventilation was applied. The subjects were sequentially imaged after an iv injection (contralateral ear vein) of 156 ± 54 MBq [^18F]FACH (0.63 ± 0.49 µg) in a PET/CT system (Biograph16, SIEMENS, Erlangen, Germany). The piglets were positioned prone with legs alongside the body on a custom-made plastic trough including a piglet head-holder (Figure 5). The PET acquisition was divided into a sequential (4 × 9 min, 3 × 12 min) and a static part (1 × 24 min, 1 × 30 min, 1 × 36 min), each of which was preceded by a low-dose CT to acquire structural data for attenuation correction (AC) and anatomical orientation (Figure 6). Post mortem, the urine was collected by bladder punctuation, weighted, and divided into three 1 mL samples for activity measurements in a gamma-counter (Packard Cobra II 5003 Auto Gamma Counting System, GMI, Ramsey, MN, USA).
PET data reconstruction was done using low-dose CT attenuation correction (AC) and an iterative OSEM algorithm with 4 iterations and 8 subsets. As the PET/CT system is in daily clinical use, it is periodically subjected to detector normalization and activity calibration. Furthermore, all peripheral activity-measuring devices to be used for the investigation (dose calibrator, gamma counter) are cross-calibrated in terms of timing and a radioactivity adjustment.
The image data were analyzed with ROVER (ABX, Radeberg, Germany; v. 3.0.46h). The organs were identified and manually delineated using 3D volumes of interest (VOI). The CT data were used for anatomical orientation and for image registration with the PET data. Relevant source organs like brain, gall bladder, large intestine, small intestine, stomach, heart, kidneys, liver, lungs, pancreas, red marrow (backbone, pelvis, sternum), spleen, thyroid, testes, skeleton (bone), and the urinary bladder were delineated and the time–activity data transformed into percentage of injected dose (%IDorgan) with Equation (2). (2) %IDorgant=Aorgant×cscant/A0t [%] where Aorgant is the activity in the organ at the time t; cscant is a calibration factor representing the theoretical body activity (derived from a whole body mask of a volume that equals the body dimentions of the animal) decay corrected to t and divided by the imaged body activity in each image frame at the time t, and A0t is the injected activity decay corrected to t0.
The dose calculation has been described by our group in detail before. Briefly, due to differences in weight, size, and metabolic rates between the animal species and the human volunteers, it is necessary to map the preclinical extracted biodistribution data to human circumstances. Thus, the animal biokinetic data (time scale and %ID values) were adapted to the human circumstances according to [22] to fit the human weight, size, and metabolic rates (Equations (3) and (4)). (3) thuman=tanimal[mhuman/manimal]^0.25 (4) [%ID]/organhuman=[%ID]/ganimal×mTBanimal[g]/mTBhuman[g]×morganhuman[g]
The TIACs were estimated by exponential fitting and the dosimetry estimation was performed using OLINDA/EXM software (v. 2.1). Finally, organ doses (OD) were estimated and multiplied by tissue weighting factors as published in ICRP103 [20].

[1] = mean of three piglets, ICRP103 wT
[2] = mean of three piglets, adult male model
[3] = mean ± SD, three piglets, ICRP103 wT

CCCN(CCC[18F])c1ccc(/C=C(\C#N)C(=O)O)c(OC)c1 [[^18F]FACH, (E)-2-cyano-3-{4-[(3-[^18F]fluoropropyl)(propyl)amino]-2-methoxyphenyl}acrylic acid]
Effective dose contribution HT wT, Heart Wall (FACHpig3): 8.18E-05 mSv/MBq | Effective dose contribution HT wT, Kidneys (FACHpig3): 2.59E-04 mSv/MBq | Effective dose contribution HT wT, Left colon (FACHpig3): 5.06E-04 mSv/MBq | Effective dose contribution HT wT, Liver (FACHpig3): 1.37E-03 mSv/MBq | Effective dose contribution HT wT, Lungs (FACHpig3): 9.15E-04 mSv/MBq | Effective dose contribution HT wT, Osteogenic Cells (FACHpig3): 2.03E-04 mSv/MBq | Effective dose contribution HT wT, Pancreas (FACHpig3): 7.24E-05 mSv/MBq | Effective dose contribution HT wT, Prostate (FACHpig3): 5.95E-05 mSv/MBq | Effective dose contribution HT wT, Rectum (FACHpig3): 2.92E-04 mSv/MBq | Effective dose contribution HT wT, Red Marrow (FACHpig3): 1.47E-03 mSv/MBq | Effective dose contribution HT wT, Right colon (FACHpig3): 9.75E-04 mSv/MBq | Effective dose contribution HT wT, Salivary Glands (FACHpig3): 6.33E-05 mSv/MBq | Effective dose contribution HT wT, Small Intestine (FACHpig3): 9.09E-05 mSv/MBq | Effective dose contribution HT wT, Spleen (FACHpig3): 7.43E-05 mSv/MBq | Effective dose contribution HT wT, Stomach Wall (FACHpig3): 9.98E-04 mSv/MBq | Effective dose contribution HT wT, Testes (FACHpig3): 2.90E-04 mSv/MBq | Effective dose contribution HT wT, Thymus (FACHpig3): 6.50E-05 mSv/MBq | Effective dose contribution HT wT, Thyroid (FACHpig3): 2.77E-04 mSv/MBq | Effective dose contribution HT wT, Total Body (FACHpig3): 0.00E+00 mSv/MBq | Effective dose contribution HT wT, Urinary Bladder Wall (FACHpig3): 3.52E-03 mSv/MBq | Organ equivalent dose HT, Adrenals (FACHpig3): 1.47E-02 mSv/MBq | Organ equivalent dose HT, Brain (FACHpig3): 4.10E-03 mSv/MBq | Organ equivalent dose HT, Esophagus (FACHpig3): 8.11E-03 mSv/MBq | Organ equivalent dose HT, Eyes (FACHpig3): 5.63E-03 mSv/MBq | Organ equivalent dose HT, Gallbladder Wall (FACHpig3): 8.72E-02 mSv/MBq | Organ equivalent dose HT, Heart Wall (FACHpig3): 8.86E-03 mSv/MBq | Organ equivalent dose HT, Kidneys (FACHpig3): 2.81E-02 mSv/MBq | Organ equivalent dose HT, Left colon (FACHpig3): 1.04E-02 mSv/MBq | Organ equivalent dose HT, Liver (FACHpig3): 3.42E-02 mSv/MBq | Organ equivalent dose HT, Lungs (FACHpig3): 7.62E-03 mSv/MBq | Organ equivalent dose HT, Osteogenic Cells (FACHpig3): 2.03E-02 mSv/MBq | Organ equivalent dose HT, Pancreas (FACHpig3): 7.85E-03 mSv/MBq | Organ equivalent dose HT, Prostate (FACHpig3): 1.29E-02 mSv/MBq | Organ equivalent dose HT, Rectum (FACHpig3): 1.27E-02 mSv/MBq | Organ equivalent dose HT, Red Marrow (FACHpig3): 1.22E-02 mSv/MBq | Organ equivalent dose HT, Right colon (FACHpig3): 2.01E-02 mSv/MBq | Organ equivalent dose HT, Salivary Glands (FACHpig3): 6.33E-03 mSv/MBq | Organ equivalent dose HT, Small Intestine (FACHpig3): 9.84E-03 mSv/MBq | Organ equivalent dose HT, Spleen (FACHpig3): 8.05E-03 mSv/MBq | Organ equivalent dose HT, Stomach Wall (FACHpig3): 8.32E-03 mSv/MBq | Organ equivalent dose HT, Testes (FACHpig3): 7.26E-03 mSv/MBq | Organ equivalent dose HT, Thymus (FACHpig3): 7.04E-03 mSv/MBq | Organ equivalent dose HT, Thyroid (FACHpig3): 6.93E-03 mSv/MBq | Organ equivalent dose HT, Total Body (FACHpig3): 8.63E-03 mSv/MBq | Organ equivalent dose HT, Urinary Bladder Wall (FACHpig3): 8.80E-02 mSv/MBq | ED Contr., Adrenals [1]: 1.31 × 10^−4 mSv/MBq | ED Contr., Brain [1]: 4.69 × 10^−5 mSv/MBq | ED Contr., Esophagus [1]: 3.61 × 10^−4 mSv/MBq | ED Contr., Eyes [1]: 0.00 mSv/MBq | ED Contr., Gall Bladder Wall [1]: 4.65 × 10^−4 mSv/MBq | ED Contr., Heart Wall [1]: 8.72 × 10^−5 mSv/MBq | ED Contr., Kidneys [1]: 2.42 × 10^−4 mSv/MBq | ED Contr., Left Colon [1]: 6.63 × 10^−4 mSv/MBq | ED Contr., Liver [1]: 9.34 × 10^−4 mSv/MBq | ED Contr., Lungs [1]: 9.46 × 10^−4 mSv/MBq | ED Contr., Osteogenic Cells [1]: 2.12 × 10^−4 mSv/MBq | ED Contr., Pancreas [1]: 2.81 × 10^−4 mSv/MBq | ED Contr., Prostate [1]: 6.01 × 10^−5 mSv/MBq | ED Contr., Rectum [1]: 3.18 × 10^−4 mSv/MBq | ED Contr., Red Marrow [1]: 1.67 × 10^−3 mSv/MBq | ED Contr., Right Colon [1]: 1.16 × 10^−3 mSv/MBq | ED Contr., Salivary Glands [1]: 7.90 × 10^−5 mSv/MBq | ED Contr., Small Intestine [1]: 1.71 × 10^−4 mSv/MBq | ED Contr., Spleen [1]: 8.37 × 10^−5 mSv/MBq | ED Contr., Stomach Wall [1]: 1.31 × 10^−3 mSv/MBq | ED Contr., Testes [1]: 3.38 × 10^−4 mSv/MBq | ED Contr., Thymus [1]: 7.69 × 10^−5 mSv/MBq | ED Contr., Thyroid [1]: 2.83 × 10^−4 mSv/MBq | ED Contr., Total Body [1]: 0.00 mSv/MBq | ED Contr., Urinary Bladder Wall [1]: 2.50 × 10^−3 mSv/MBq | OD, Adrenals [2]: 1.42 × 10^−2 mSv/MBq | OD, Brain [2]: 4.69 × 10^−3 mSv/MBq | OD, Esophagus [2]: 9.03 × 10^−3 mSv/MBq | OD, Eyes [2]: 6.91 × 10^−3 mSv/MBq | OD, Gall Bladder Wall [2]: 5.04 × 10^−2 mSv/MBq | OD, Heart Wall [2]: 9.46× 10^−3 mSv/MBq | OD, Kidneys [2]: 2.62 × 10^−2 mSv/MBq | OD, Left Colon [2]: 1.37 × 10^−2 mSv/MBq | OD, Liver [2]: 2.33 × 10^−2 mSv/MBq | OD, Lungs [2]: 7.88 × 10^−3 mSv/MBq | OD, Osteogenic Cells [2]: 2.12 × 10^−2 mSv/MBq | OD, Pancreas [2]: 3.05 × 10^−2 mSv/MBq | OD, Prostate [2]: 1.30 × 10^−2 mSv/MBq | OD, Rectum [2]: 1.38 × 10^−2 mSv/MBq | OD, Red Marrow [2]: 1.39 × 10^−2 mSv/MBq | OD, Right Colon [2]: 2.40 × 10^−2 mSv/MBq | OD, Salivary Glands [2]: 7.90 × 10^−3 mSv/MBq | OD, Small Intestine [2]: 1.84 × 10^−2 mSv/MBq | OD, Spleen [2]: 9.08 × 10^−3 mSv/MBq | OD, Stomach Wall [2]: 1.09 × 10^−2 mSv/MBq | OD, Testes [2]: 8.45 × 10^−3 mSv/MBq | OD, Thymus [2]: 8.33 × 10^−3 mSv/MBq | OD, Thyroid [2]: 7.08 × 10^−3 mSv/MBq | OD, Total Body [2]: 9.76 × 10^−3 mSv/MBq | OD, Urinary Bladder Wall [2]: 6.26 × 10^−2 mSv/MBq | organ dose, gall bladder (mean ± SD, three piglets): 50.4 ± 37.5 µSv/MBq | organ dose, kidneys (mean ± SD, three piglets): 26.2 ± 2.2 µSv/MBq | organ dose, liver (mean ± SD, three piglets): 23.3 ± 13.6 µSv/MBq | organ dose, pancreas (mean ± SD, three piglets): 30.5 ± 27.3 µSv/MBq | organ dose, right colon (mean ± SD, three piglets): 24.0 ± 7.4 µSv/MBq | organ dose, urinary bladder (mean ± SD, three piglets): 62.6 ± 28.9 µSv/MBq | contribution to the ED, lungs [3]: 0.9 ± 0.05 µSv/MBq | contribution to the ED, red marrow [3]: 1.7 ± 0.3 µSv/MBq | contribution to the ED, right colon [3]: 1.2 ± 0.4 µSv/MBq | contribution to the ED, stomach [3]: 1.3 ± 0.4 µSv/MBq | contribution to the ED, urinary bladder [3]: 2.5 ± 1.1 µSv/MBq | ED to humans, preclinical (piglet biokinetic data, ICRP103 wT): 12.4 µSv/MBq | ED to humans, corrected (~300 MBq iv, corrected for up to 40% underestimation): about 6.2 mSv

From paper PMC7248880, “Preclinical Incorporation Dosimetry of [^18F]FACH—A Novel ^18F-Labeled MCT1/MCT4 Lactate Transporter Inhibitor for Imaging Cancer Metabolism with PET” (Molecules, 2020)
